Each structure is given as a SMILES string.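 Test compounds were applied to cells in 96-well plates for 48 hours at 5 doses. The concentration for 50% growth inhibition is given as GI50. TGI is the concentration that stops growth completely.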

Drawing on PubChem BioAssay (NCI), this text covers TGI and GI50 for 15 molecules.

Some test systems named below: HOP-62 NSCLC; MALME-3M melanoma; MOLT-4 leukemia; NCI-H226 lung; NCI-H23 lung; OVCAR-5 ovarian; OVCAR-8 ovarian; RPMI-8226 leukemia; RXF 393 renal; SF-268 CNS.
Holding throughout (experiment): inhibition of tumour cell growth, NCI panel, 48 h

As to `COc1ccc2c(c1)c(=O)c1c(NCCN(C)C)ccc3nnn2c31`, the TGI in the experiment on HOP-62 NSCLC is 15.4 µM; with MALME-3M melanoma, 17.2 µM; in the experiment on MOLT-4 leukemia, 2.99 µM; in the experiment on NCI-H226 lung, 9.44 µM; in the experiment on NCI-H23 lung, 13.1 µM; with OVCAR-5 ovarian it was 19.6 µM. Further, the TGI with OVCAR-8 ovarian was determined as 13.6 µM; in the experiment with RPMI-8226 leukemia, 6.13 µM; in the experiment on RXF 393 renal, 10.5 µM; in the experiment with SF-268 CNS it was 14.9 µM.
For `CC(CN(C)C)C(=O)c1ccccc1` (stereo not given), the TGI in the experiment with HOP-62 NSCLC is over 100 µM; in the experiment with MALME-3M melanoma it was over 61.1 µM; in the experiment on MOLT-4 leukemia it was 27.6 µM; in the experiment with NCI-H226 lung, over 100 µM; with NCI-H23 lung it was 68 µM; in the experiment on OVCAR-5 ovarian, 96.1 µM. The TGI in the experiment with OVCAR-8 ovarian is over 91.2 µM; with RPMI-8226 leukemia, 19.8 µM; in the experiment on RXF 393 renal, over 54.2 µM; in the experiment on SF-268 CNS, 85 µM.
Regarding `NC(Cc1ncccn1)C(=O)O` (stereo not given), the TGI in the experiment with HOP-62 NSCLC, in the experiment on MALME-3M melanoma, with MOLT-4 leukemia, with NCI-H226 lung, in the experiment with NCI-H23 lung and in the experiment with OVCAR-5 ovarian was over 100 µM in each case. In addition, the TGI in the experiment with OVCAR-8 ovarian, in the experiment on RPMI-8226 leukemia, with RXF 393 renal and with SF-268 CNS was over 100 µM in each case.
On to `O=C(NCCNc1nccc(-c2c(-c3cccc(O)c3)nc3sccn23)n1)c1ccccc1`, for which the GI50 with HOP-62 NSCLC is 23.5 µM; in the experiment with MOLT-4 leukemia it was 13.5 µM; with NCI-H226 lung, 7.95 µM; in the experiment on NCI-H23 lung, 10 µM; in the experiment on OVCAR-5 ovarian, 18.3 µM; with OVCAR-8 ovarian, 11.1 µM. For the same molecule, the values for the GI50 in the experiment on RPMI-8226 leukemia, with RXF 393 renal and in the experiment with SF-268 CNS were 6.97 µM, 4.14 µM and 15.5 µM, respectively. In addition, the TGI stood at 94.2 µM with HOP-62 NSCLC; 74.2 µM in the experiment with MOLT-4 leukemia; 45.3 µM in the experiment with NCI-H226 lung; 30.7 µM in the experiment on NCI-H23 lung; 61.8 µM in the experiment on OVCAR-5 ovarian; 78.8 µM in the experiment on OVCAR-8 ovarian. In addition, the TGI in the experiment with RPMI-8226 leukemia amounted to 25.3 µM; in the experiment on RXF 393 renal, 22.2 µM; in the experiment on SF-268 CNS, 87 µM.
For `ClCc1cccc(CSc2ncnc3c2ncn3Cc2cccc(CCl)c2)c1`, the GI50 is 1.8 µM in the experiment on HOP-62 NSCLC; 3.65 µM in the experiment with MOLT-4 leukemia; 1.66 µM with NCI-H226 lung; 1.75 µM in the experiment with NCI-H23 lung; 1.84 µM in the experiment with OVCAR-5 ovarian; 2.11 µM in the experiment with OVCAR-8 ovarian. For the same molecule, the GI50 in the experiment on RPMI-8226 leukemia was 1.89 µM; with RXF 393 renal, 1.05 µM; with SF-268 CNS, 1.99 µM. The TGI worked out at 3.33 µM in the experiment with HOP-62 NSCLC; 17.2 µM with MOLT-4 leukemia; 4.54 µM in the experiment on NCI-H226 lung; 3.88 µM in the experiment on NCI-H23 lung; 3.99 µM in the experiment with OVCAR-5 ovarian; 6.24 µM in the experiment with OVCAR-8 ovarian. Further, the figures for the TGI in the experiment on RPMI-8226 leukemia, in the experiment on RXF 393 renal and in the experiment with SF-268 CNS were 4.86 µM, 2.4 µM and 4.91 µM, respectively.
In the case of `O=S(=O)(O)c1ccc2c(N=Nc3ccc(Cl)cc3)c(O)ccc2c1`, the TGI with HOP-62 NSCLC, in the experiment on MALME-3M melanoma, in the experiment on MOLT-4 leukemia, in the experiment with NCI-H23 lung, in the experiment on OVCAR-5 ovarian and in the experiment with OVCAR-8 ovarian was over 100 µM in each case. Also, the TGI in the experiment on RPMI-8226 leukemia, in the experiment with RXF 393 renal and in the experiment on SF-268 CNS was over 100 µM each time.
`CC(C)/C(=N\[N+](C)(C)C)c1ccccc1`: the TGI with HOP-62 NSCLC, in the experiment on MALME-3M melanoma, with MOLT-4 leukemia, in the experiment on NCI-H226 lung, in the experiment with NCI-H23 lung and with OVCAR-5 ovarian was over 100 µM in each case. Moreover, the TGI in the experiment on OVCAR-8 ovarian, with RPMI-8226 leukemia, with RXF 393 renal and in the experiment with SF-268 CNS was over 100 µM in each case.
Take `CCOC(=O)Cc1cnc(NC(NC(=O)CC)(C(F)(F)F)C(F)(F)F)s1`: the TGI in the experiment on HOP-62 NSCLC, in the experiment on MALME-3M melanoma, in the experiment with MOLT-4 leukemia, with NCI-H226 lung, with NCI-H23 lung and in the experiment with OVCAR-5 ovarian was over 100 µM each time. In addition, the TGI in the experiment with RPMI-8226 leukemia, in the experiment on RXF 393 renal and with SF-268 CNS was over 100 µM throughout.
As for `COc1c2c(cc3c1C1(O)Cc4ccc5c(c4C[N+]1(C)CC3)OCO5)OCO2` (stereo not given), the TGI in the experiment with HOP-62 NSCLC, with MALME-3M melanoma, in the experiment with MOLT-4 leukemia, in the experiment with NCI-H226 lung, with NCI-H23 lung and in the experiment with OVCAR-5 ovarian was over 100 µM in each case. The TGI with OVCAR-8 ovarian, in the experiment on RPMI-8226 leukemia, with RXF 393 renal and in the experiment with SF-268 CNS was over 100 µM each time.
In the case of `COc1ccc(C2C3CCCC(C3=O)C(c3ccc(OC)cc3)N2N=O)cc1` (stereo not given), the TGI is over 86.5 µM with HOP-62 NSCLC; 20 µM with MALME-3M melanoma; over 61.6 µM with MOLT-4 leukemia; 61.6 µM with NCI-H226 lung; 44.5 µM in the experiment with NCI-H23 lung; over 100 µM in the experiment with OVCAR-5 ovarian. In addition, the TGI in the experiment on OVCAR-8 ovarian is over 100 µM; in the experiment with RPMI-8226 leukemia it was 47.8 µM; with RXF 393 renal, 41.1 µM; in the experiment with SF-268 CNS it was over 100 µM.
On to `COc1cccc2cc(C(C)=O)c(=O)oc12`, for which the TGI in the experiment on HOP-62 NSCLC, in the experiment with MALME-3M melanoma, in the experiment on MOLT-4 leukemia, in the experiment on NCI-H226 lung, in the experiment on NCI-H23 lung and in the experiment with OVCAR-5 ovarian was over 100 µM in each case. The TGI with OVCAR-8 ovarian, with RPMI-8226 leukemia, with RXF 393 renal and with SF-268 CNS was over 100 µM each time.
`O=C(NNS(=O)(=O)c1ccccc1)c1cccnc1`: the TGI in the experiment on HOP-62 NSCLC, in the experiment on MALME-3M melanoma, in the experiment with MOLT-4 leukemia, with NCI-H226 lung, in the experiment on NCI-H23 lung and in the experiment with OVCAR-5 ovarian was over 100 µM in each case. The TGI in the experiment with OVCAR-8 ovarian, in the experiment with RPMI-8226 leukemia, with RXF 393 renal and in the experiment on SF-268 CNS was over 100 µM each time.
In the case of `COc1cc(C2c3cc4c(cc3[C@@H](Oc3ccc(F)cc3)C3COC(=O)[C@H]23)OCO4)cc(OC)c1O` (stereo not given in full), the TGI is 0.95 µM in the experiment on HOP-62 NSCLC; 31.8 µM in the experiment with MALME-3M melanoma; 4.66 µM with MOLT-4 leukemia; over 100 µM with NCI-H23 lung; over 100 µM with OVCAR-5 ovarian; over 100 µM with OVCAR-8 ovarian. Besides, the figures for the TGI in the experiment on RPMI-8226 leukemia and with SF-268 CNS were 6.64 µM and over 100 µM, respectively.
Consider `C[N+]1(CCC[N+]2(C)CC3C4C=CC(CC4)C3C2)CCOCC1` (stereo not given), for which the TGI with HOP-62 NSCLC, with MALME-3M melanoma, with MOLT-4 leukemia, in the experiment with NCI-H226 lung, in the experiment with NCI-H23 lung and in the experiment on OVCAR-5 ovarian was over 100 µM throughout. The TGI with OVCAR-8 ovarian, in the experiment with RPMI-8226 leukemia, with RXF 393 renal and in the experiment on SF-268 CNS was over 100 µM in each case.
For the molecule `O=C(Nc1cccc2ccccc12)c1ccccc1`, the TGI in the experiment with HOP-62 NSCLC, with MALME-3M melanoma, in the experiment with NCI-H226 lung, in the experiment on NCI-H23 lung, with OVCAR-5 ovarian and in the experiment on OVCAR-8 ovarian was over 100 µM throughout. For the same molecule, the TGI in the experiment on RXF 393 renal and with SF-268 CNS was over 100 µM throughout.
